According to PMC9124820, “In vitro evaluation of fenfluramine and norfenfluramine as victims of drug interactions” (Pharmacology Research & Perspectives, 2022):

Legend:
[1] = target: T1, rCYP2D6 (Homo sapiens, UniProt P10635); assay: Reaction phenotyping with rCYP2D6; format: in vitro ADME; details: rCYP2D6, 60 min
T1 construct: purchased Cypex, Ltd; host or cells: Escherichia coli
Experimental: (§1) For FFA and nFFA reaction phenotyping experiments, LC‐MS/MS experiments were performed using an API 4000 QTRAP or QTRAP 5500 mass spectrometer (SCIEX) with positive electrospray ionization. Chromatography was performed using an Atlantis dC18 analytical column (100 × 2.1 mm, 5 µm; Waters Corporation). Mobile phases were 0.2% v/v formic acid in water and 0.2% v/v formic acid in methanol. FFA and nFFA were eluted at a flow rate of 0.5 mL/min with a linear gradient of 40%−95% methanol from 0.20−2.1 min. The mass transitions monitored were 232.0>109.0 for FFA, 204.0>159.0 for nFFA, 348.0>330.0 for 1’‐hydroxymidazolam‐d4 internal standard (FFA reaction phenotyping), and 262.0>244.0 for hydroxybupropion‐d6 internal standard (nFFA reaction phenotyping). Analyst Instrument Control and Data Processing software (v. 1.6.1) was used for collecting and integrating data (SCIEX). Calibration curves ranging from 1.25 µM−0.01 µM were used to quantify nFFA. Relative quantitation was used to approximate the amount of FFA test material used.
(§2) Methods used to evaluate the role of CYP450s in the metabolism of FFA have been described.[22], [23], [24] […] Supernatant fractions were analyzed by LC‐MS/MS.

[2] = target: T2, rCYP1A2 (Homo sapiens, UniProt P05177); assay: Reaction phenotyping with rCYP1A2; format: in vitro ADME
T2 construct: purchased Cypex, Ltd; host or cells: Escherichia coli
T2 sequence (P05177 1-516): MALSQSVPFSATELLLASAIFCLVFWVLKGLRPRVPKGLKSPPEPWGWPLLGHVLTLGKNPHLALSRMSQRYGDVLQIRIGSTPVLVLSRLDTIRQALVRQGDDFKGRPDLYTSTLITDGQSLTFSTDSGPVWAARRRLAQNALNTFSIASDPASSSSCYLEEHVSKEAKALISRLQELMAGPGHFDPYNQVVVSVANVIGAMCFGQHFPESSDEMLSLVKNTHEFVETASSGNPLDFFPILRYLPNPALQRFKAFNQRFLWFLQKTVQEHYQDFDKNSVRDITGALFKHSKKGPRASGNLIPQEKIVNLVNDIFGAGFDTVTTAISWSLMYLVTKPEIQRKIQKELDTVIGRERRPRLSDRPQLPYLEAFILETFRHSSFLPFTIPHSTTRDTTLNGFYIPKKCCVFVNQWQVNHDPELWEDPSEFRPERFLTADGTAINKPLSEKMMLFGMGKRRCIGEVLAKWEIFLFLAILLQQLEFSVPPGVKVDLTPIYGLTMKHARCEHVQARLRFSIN
Experimental: as §1, §2

T1 sequence (P10635 whole entry): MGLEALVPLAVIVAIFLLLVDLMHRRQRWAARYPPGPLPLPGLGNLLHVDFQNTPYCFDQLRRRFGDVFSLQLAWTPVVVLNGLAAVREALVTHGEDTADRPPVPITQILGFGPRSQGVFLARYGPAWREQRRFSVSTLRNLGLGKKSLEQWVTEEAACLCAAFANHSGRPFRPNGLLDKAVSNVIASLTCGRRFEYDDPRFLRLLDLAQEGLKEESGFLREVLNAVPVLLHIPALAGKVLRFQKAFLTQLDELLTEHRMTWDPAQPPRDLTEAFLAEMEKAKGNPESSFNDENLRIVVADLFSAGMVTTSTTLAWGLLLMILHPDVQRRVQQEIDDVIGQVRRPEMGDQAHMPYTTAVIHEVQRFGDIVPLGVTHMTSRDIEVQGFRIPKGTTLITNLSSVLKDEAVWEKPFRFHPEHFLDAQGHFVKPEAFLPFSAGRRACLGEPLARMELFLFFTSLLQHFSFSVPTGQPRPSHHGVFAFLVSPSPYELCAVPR

Structure (SMILES): CCNC(C)Cc1cccc(C(F)(F)F)c1 (racemic) [FFA, (RS)‐ethyl (α‐methyl‐3‐trifluoromethylphenethyl)amine]
- Disappearance of FFA ([1]; 1 μM FFA): 97%
- FFA loss ([1]; 10 μM FFA): 59%
- Disappearance of FFA ([2]; 1 μM FFA, 25 pmol rCYP1A2, 60 min): 23%
- FFA loss ([2]; 10 μM FFA, rCYP1A2, 60 min): 22%
